Results published in ChEMBL document CHEMBL1201862, “PubChem BioAssay data set” (2004).
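Each compound was tested at five concentrations against cells in 96-well plates for 48 hours. GI50 is the concentration that inhibits growth by half.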 The source made the active and inactive calls. Rule as the data show it: active = GI50 up to about 1.1 µM and inactive = higher.

Assays:
Test in all cases: NCI-60 cell line screen, 48 h
786-0 = system: 786-0
A498 = system: A498
A549 = system: A549
ACHN = system: ACHN
BT-549 = system: BT-549
CAKI-1 = system: CAKI-1
CCRF-CEM = system: CCRF-CEM
COLO 205 = system: COLO 205
DU-145 = system: DU-145
EKVX = system: EKVX
HCC 2998 = system: HCC 2998
HCT-116 = system: HCT-116
HCT-15 = system: HCT-15
HL-60 = system: HL-60
HOP-62 = system: HOP-62
HOP-92 = system: HOP-92
HT-29 = system: HT-29
Hs-578T = system: Hs-578T
IGROV-1 = system: IGROV-1
K562 = system: K562
KM12 = system: KM12
LOX IMVI = system: LOX IMVI
M14 = system: M14
MCF7 = system: MCF7
MDA-MB-231 = system: MDA-MB-231
MDA-MB-435 = system: MDA-MB-435
MDA-N = system: MDA-N
MOLT-4 = system: MOLT-4
Malme-3M = system: Malme-3M
NCI-H226 = system: NCI-H226
NCI-H23 = system: NCI-H23
NCI-H460 = system: NCI-H460
NCI-H522 = system: NCI-H522
NCI/ADR-RES = system: NCI/ADR-RES
OVCAR-3 = system: OVCAR-3
OVCAR-4 = system: OVCAR-4
OVCAR-5 = system: OVCAR-5
OVCAR-8 = system: OVCAR-8
PC-3 = system: PC-3
RPMI-8226 = system: RPMI-8226
RXF 393 = system: RXF 393
SF-268 = system: SF-268
SF-295 = system: SF-295
SF-539 = system: SF-539
SK-MEL-28 = system: SK-MEL-28
SK-MEL-2 = system: SK-MEL-2
SK-MEL-5 = system: SK-MEL-5
SK-OV-3 = system: SK-OV-3
SN12C = system: SN12C
SNB-19 = system: SNB-19
SNB-75 = system: SNB-75
SR = system: SR
SW-620 = system: SW-620
T47D = system: T47D
TK-10 = system: TK-10
U-251 = system: U-251
UACC-257 = system: UACC-257
UACC-62 = system: UACC-62
UO-31 = system: UO-31

With `COc1c2c(cc3c1C(O)N1CC[C@]34[C@H]3O[C@H]3[C@H](OC)C[C@@H]14)OCO2` (stereo partly drawn) the GI50 (786-0) was > 100 µM (inactive), the GI50 (A498) was 50.5 µM (inactive) and the GI50 (A549) was > 100 µM (inactive). For the same molecule, the GI50 (ACHN) was > 100 µM (inactive), the GI50 (BT-549) was > 100 µM (inactive) and the GI50 (CAKI-1) was > 100 µM (inactive). The GI50 (CCRF-CEM) was 2.38 µM (inactive), the GI50 (COLO 205) was 97.9 µM (inactive) and the GI50 (DU-145) was > 100 µM (inactive). The GI50 (EKVX) was > 100 µM (inactive), the GI50 (HCC 2998) was > 100 µM (inactive) and the GI50 (HCT-116) was 75 µM (inactive). For the same molecule, the GI50 (HCT-15) was 67.3 µM, the GI50 (HL-60) was 1.18 µM (inactive) and the GI50 (HOP-62) was 35.8 µM (inactive). For the same molecule, the GI50 (HOP-92) was > 100 µM (inactive), the GI50 (HT-29) was 42.8 µM (inactive) and the GI50 (Hs-578T) was > 100 µM (inactive). The GI50 (IGROV-1) was 64.9 µM (inactive), the GI50 (K562) was 48 µM (inactive) and the GI50 (KM12) was 73.1 µM (inactive). The GI50 (LOX IMVI) was 71.4 µM (inactive), the GI50 (M14) was 85.3 µM (inactive) and the GI50 (MCF7) was 35 µM (inactive). The GI50 (MDA-MB-231) was > 100 µM (inactive), the GI50 (MDA-MB-435) was 31.6 µM (inactive) and the GI50 (MDA-N) was 25.3 µM (inactive). For the same molecule, the GI50 (MOLT-4) was > 100 µM (inactive), the GI50 (Malme-3M) was 71.1 µM (inactive) and the GI50 (NCI-H226) was > 100 µM (inactive). The GI50 (NCI-H23) was > 100 µM (inactive), the GI50 (NCI-H460) was 72.3 µM (inactive) and the GI50 (NCI-H522) was 31.9 µM (inactive). The GI50 (NCI/ADR-RES) was > 100 µM (inactive), the GI50 (OVCAR-3) was 16.4 µM (inactive) and the GI50 (OVCAR-4) was > 100 µM (inactive). For the same molecule, the GI50 (OVCAR-5) was > 100 µM (inactive), the GI50 (OVCAR-8) was > 100 µM (inactive) and the GI50 (PC-3) was 39.3 µM (inactive). The GI50 (RPMI-8226) was 82 µM (inactive), the GI50 (RXF 393) was 67.5 µM (inactive) and the GI50 (SF-268) was > 100 µM (inactive). The GI50 (SF-295) was 27.2 µM (inactive), the GI50 (SF-539) was > 100 µM (inactive) and the GI50 (SK-MEL-28) was > 100 µM (inactive). For the same molecule, the GI50 (SK-MEL-2) was 26.4 µM (inactive), the GI50 (SK-MEL-5) was 64.6 µM (inactive) and the GI50 (SK-OV-3) was 24.2 µM (inactive). For the same molecule, the GI50 (SN12C) was > 100 µM (inactive), the GI50 (SNB-19) was > 100 µM (inactive) and the GI50 (SNB-75) was 86.3 µM (inactive). For the same molecule, the GI50 (SR) was 21.9 µM (inactive), the GI50 (SW-620) was 54.7 µM (inactive) and the GI50 (T47D) was > 100 µM (inactive). The GI50 (TK-10) was > 100 µM (inactive), the GI50 (U-251) was > 100 µM (inactive) and the GI50 (UACC-257) was 64.6 µM (inactive). For the same molecule, the GI50 (UACC-62) was 39.3 µM (inactive) and the GI50 (UO-31) was > 100 µM (inactive).

In the case of `O=c1c(Sc2ncccn2)c(Sc2ncccn2)cnn1CCl`, the GI50 (786-0) is reported as 1.87 µM (inactive), the GI50 (A498) is reported as 19.1 µM (inactive) and the GI50 (A549) is reported as 16.4 µM (inactive). For the same molecule, the GI50 (ACHN) was 2.21 µM (inactive), the GI50 (BT-549) was 10.2 µM (inactive) and the GI50 (CAKI-1) was 1.98 µM (inactive). The GI50 (CCRF-CEM) was 0.295 µM (active), the GI50 (COLO 205) was 1.76 µM (inactive) and the GI50 (DU-145) was 2.64 µM (inactive). For the same molecule, the GI50 (EKVX) was 2.9 µM (inactive), the GI50 (HCC 2998) was 10.8 µM (inactive) and the GI50 (HCT-116) was 1.85 µM (inactive). The GI50 (HCT-15) was 3.02 µM, the GI50 (HL-60) was 2.04 µM (inactive) and the GI50 (HOP-62) was 1.49 µM (inactive). The GI50 (HOP-92) was 2.59 µM (inactive), the GI50 (HT-29) was 1.98 µM (inactive) and the GI50 (Hs-578T) was 14.5 µM (inactive). The GI50 (IGROV-1) was 1.17 µM (inactive), the GI50 (K562) was 3.39 µM (inactive) and the GI50 (KM12) was 14.7 µM (inactive). The GI50 (LOX IMVI) was 2.01 µM (inactive), the GI50 (M14) was 2.12 µM (inactive) and the GI50 (MCF7) was 2.88 µM (inactive). For the same molecule, the GI50 (MDA-MB-231) was 6.98 µM (inactive), the GI50 (MDA-MB-435) was 1.77 µM (inactive) and the GI50 (MDA-N) was 2.17 µM (inactive). For the same molecule, the GI50 (MOLT-4) was 2.72 µM (inactive), the GI50 (Malme-3M) was 2.05 µM (inactive) and the GI50 (NCI-H226) was 28.1 µM (inactive). For the same molecule, the GI50 (NCI-H23) was 4.67 µM (inactive), the GI50 (NCI-H460) was 14.7 µM (inactive) and the GI50 (NCI-H522) was 0.665 µM (active). The GI50 (NCI/ADR-RES) was 4.97 µM (inactive), the GI50 (OVCAR-3) was 2.02 µM (inactive) and the GI50 (OVCAR-4) was 2.15 µM (inactive). The GI50 (OVCAR-5) was 7.21 µM (inactive), the GI50 (OVCAR-8) was 2.08 µM (inactive) and the GI50 (PC-3) was 2.48 µM (inactive). For the same molecule, the GI50 (RPMI-8226) was 1.67 µM (inactive), the GI50 (RXF 393) was 1.5 µM (inactive) and the GI50 (SF-268) was 2.99 µM (inactive). For the same molecule, the GI50 (SF-295) was 15.3 µM (inactive), the GI50 (SF-539) was 1.52 µM (inactive) and the GI50 (SK-MEL-28) was 3.41 µM (inactive). The GI50 (SK-MEL-2) was 2.22 µM (inactive), the GI50 (SK-MEL-5) was 6.87 µM (inactive) and the GI50 (SK-OV-3) was 11.1 µM (inactive). For the same molecule, the GI50 (SN12C) was 3.79 µM (inactive), the GI50 (SNB-19) was 17 µM (inactive) and the GI50 (SNB-75) was 16.4 µM (inactive). The GI50 (SR) was 2.79 µM (inactive), the GI50 (SW-620) was 2.4 µM (inactive) and the GI50 (T47D) was 3.23 µM (inactive). For the same molecule, the GI50 (TK-10) was 0.398 µM (active), the GI50 (U-251) was 7.08 µM (inactive) and the GI50 (UACC-257) was 2.17 µM (inactive). The GI50 (UACC-62) was 5.75 µM (inactive) and the GI50 (UO-31) was 1.7 µM (inactive).
